Here are results for 8 molecules from publication PMC6273209, “Evaluation of the Enantiomer Specific Biokinetics and Radiation Doses of [^18F]Fluspidine—A New Tracer in Clinical Translation for Imaging of σ1 Receptors” (Molecules, 2016).

For data set [1] the following is noted: cited from earlier work.
A further data set concerns the target σ1 receptors. More on the design: method as in PMID 24130175. The note with it: read-out: Ki (affinity towards σ1 receptors); cited from earlier work.
For data set [2] the following is noted: cited from earlier work. The source holds these as a separate data set.
The conditions of data set [3]: imaging, cited from earlier work.
Details of data set [4]: method as in PMID 12573321, PMID 12589478. The note with it: cited from earlier work.
Data set [5] can be described thus: Acute toxicity study, single intravenous injection. The note with it: Wistar rats. It is filed as in vivo. An excerpt:
Supplementary Materials: Evaluation of the Enantiomer Specific Biokinetics and Radiation Doses of [18F]Fluspidine—A New Tracer in Clinical
Translation for Imaging of σ1 Receptors […]
Supplemental Methods and Results
Animal Toxicity Study of (S)-(−)-Fluspidine
The purpose of this study was to assess the acute toxicity of (S)-(−)-fluspidine when administered by a single intravenous injection to rats followed by an observation period of 2 or 15 day (in accordance with EU cGLP). Briefly, the study was performed with 4 test groups, including 1 control (saline and dimethylsulfoxide) and 3 dose groups (6.2, 62 and 620 µg/kg, (S)- (−)ﬂuspidine), with Wistar rats (60 m, 60 f, 12 weeks) divided into two experiments: day 2 (40 males and 40 females) and day 15 (20 males and 20 females). The animals were weighted and allocated to the test groups based on their actual body weights. The animals were sacrificed at two time periods (day 2 and day 15 after test item administration) and then examined macroscopically and histopathologically. In addition the following parameters were evaluated: mortality, clinical observation (spasms, tremor and hyperactivity), body weights, food consumption, haematology (white blood cells, red blood cells, hemoglobin, hematocrit, mean corpuscular volume, mean corpuscular hemoglobin, platelets, lympohcytes, neutrophils, eosinophils, basophils, monocytes), clinical chemistry (alkaline phosphatase, aspartate aminotransferase, alanine aminotransferase, glucose, cholesterol, triacylglycerols, creatinine, urea, bilirubin, albumin, calcium, phosphorus, sodium, potassium chloride), pathology and histopathology. […]
in either gender were detected. The food consumption corresponded with body weight development. All haematology parameter´s values on day 2 and day 15 were within physiological range for this species. Individual divergences of some values of the haematology parameters were slight and not connected with treatment.
There were no findings in clinical chemistry parameters which could be definitively considered as adverse. The average values of all test groups were within the historical control ranges. Occasional changes had no dose relationship, they were considered to be a result of intraindividual and interindividual variability for this species. […]
histopathological parameters on day 2 and day 15. The no observed effect level (NOEL) of (S)- (−)-fluspidine after single intravenous administration in this study for both day 2 and day 15 was determined to be 620 µg/kg.

Where two headings read alike, the source gives them in different places.

Turning to `[18F]c1ncccc1OC[C@@H]1CCN1` [2-[^18F]F-A85380], the “ED Clinical” value in data set [1] is given as 19.4 μSv/MBq.

The Ki is a dissociation constant, usually derived from enzyme kinetics or from competition with a known ligand. On to `FCC[C@H]1OC2(CCN(Cc3ccccc3)CC2)c2ccccc21` [(R)-(+)-[^18F]fluspidine], for which the Ki on σ1 receptors was 0.57 nM.

Take `COc1ccc(OCC[18F])c(CN(C(C)=O)c2cc(F)ccc2Oc2ccccc2)c1` [[^18F]FEDAA1106]: in data set [1], the “ED Clinical” value is given as 36 μSv/MBq. In addition, the entries for the “ED Preclinical” value in data set [2] (female mouse) and in data set [2] (male mouse) were 26.0 μSv/MBq and 21.0 μSv/MBq, respectively.

For the molecule `[18F]c1ccc(C2CC3CCCC2N3)cn1` (single isomer, unassigned; (+)) [(+)-[^18F]flubatine], the “ED Preclinical” value is 14.3 μSv/MBq in data set [3] (piglets) and 12.1 μSv/MBq in data set [2] (mouse, imaging). Moreover, the “ED Clinical” value in data set [1] is 23.0 μSv/MBq.

Regarding `N[C@@H](Cc1ccc(OCC[18F])cc1)C(=O)O` [[^18F]FET], the “ED Preclinical” value in data set [4] is 9.0 μSv/MBq. Further, the “ED Clinical” value in data set [1] is listed as 16.5 μSv/MBq.

As for `FCC[C@@H]1OC2(CCN(Cc3ccccc3)CC2)c2ccccc21` [(S)-(−)-fluspidine], the “body weights, control vs treated groups” value in data set [5] (single i.v. 6.2, 62 and 620 µg/kg, either gender) is on record as “No statistically significant differences in body weights”. The “adverse findings in clinical chemistry parameters” value in data set [5] (single i.v.) is given as “no findings”. For the same molecule, the “effect on haematology parameters” value in data set [5] (single i.v., day 2 and day 15) is “No test item effect”. Besides, the “toxicological changes in pathological and histopathological parameters” value in data set [5] (single intravenous administration, day 2 and day 15) is “did not cause toxicological changes”. The “no observed effect level (NOEL)” value in data set [5] (single intravenous administration, day 2 and day 15, highest tested dose) is 0.62 mg/kg.

On to `OC[C@H]1OC(O)[C@H]([18F])[C@@H](O)[C@@H]1O` (stereo partly shown) [[^18F]FDG], for which the “ED Clinical” value in data set [1] is on record as 19.0 μSv/MBq.

Turning to `[18F]c1ccc([C@@H]2C[C@H]3CCC[C@@H]2N3)cn1` [(−)-[^18F]flubatine], the “ED Preclinical” value in data set [3] (piglet) is given as 14.7 μSv/MBq; in data set [2] (mouse), 12.5 μSv/MBq. Further, in data set [1], the “ED Clinical” value is on record as 23.4 μSv/MBq.
